Measured values taken from US20250000855A1, “USE OF APOMORPHINE AS THERAPEUTIC AGENT FOR NECROPTOSIS-RELATED DISEASES” (INDUSTRY-ACADEMIC COOPERATION FOUNDATION, YONSEI UNIVERSITY, priority 2021, published 2025).

Experiments:
Type in all cases: cell-based, human
[1] = system: MLKL phosphorylation; assay: Western blotting for MLKL phosphorylation in TBZ+APO-treated cells; settings: TBZ+APO-treated THP-1 cells, FIG. 1B
Protocol: Cells were pretreated with Z-VAD (invivoGen, tlrl-vad) and a compound for 1 hour, and necroptosis was induced with TNF-α (ATGen, TNF0501) and BV6 (Biovision, B1332-5) for the indicated time. The prepared cells were appropriately treated according to analysis (Z-VAD: carbobenzoxy-valyl-alanyl-aspartyl, TNF-α: tumor necrosis factor-α, BV6: 4,4′-(1,6-hexanediyl)bis[N-methyl-L-alanyl-(2S)-2-cyclohexylglycyl-L-prolyl-β-phenyl-L-phenylalaninamide)
(§1) Cells were treated with a drug candidate and then collected using centrifugation at 4° C. and 1,500×g for 5 minutes. A supernatant was centrifuged again at 4° C. and 1,500×g for 5 minutes to remove remaining debris, concentrated at 4° C. and 14,000×g for 30 minutes using Amicon ultra-0.5 centrifugal filter unit 10K (Millipore, UFC501096), and stored. The collected cells were lysed using 1× radioimmunoprecipitation assay (RIPA) buffer (GenDEPOT, R4100-010) containing a 1× protease inhibitor (GenDEPOT, P3100-001) and a phosphatase inhibitor (Thermo Fisher Scientific, 1862495). Subsequently, the cell lysate was centrifuged at 4° C. and 20,000×g for 30 minutes to remove debris. The extracted protein concentration was measured using a bicinchoninic acid (BCA) protein assay kit (Thermo Fisher Scientific, 23225). […]

[2] = system: HMGB1 secretion; assay: HMGB1 secretion into supernatant of TBZ-treated THP-1 cells, Western blotting; settings: APO 1, 5, 20, 80, or 320 μM for 8 hours, vs TBZ only-treated group, FIG. 4
Protocol: as §1
To test whether secretion of HMGB1, a representative damage-associated molecular pattern, which is one of the characteristics of necroptosis, is inhibited by treating THP-1 cells with necroptosis induced by TBZ treatment with APO, after concentration-dependent treatment (1, 5, 20, 80, or 320 μM) with APO for 8 hours, all of the supernatant was concentrated, analyzed by SDS-PAGE, and investigated with an HMGB1 antibody (Experimental Method 1-6). […]

[3] = system: MLKL translocation in transfected THP-1 cells; assay: Flag-MLKL translocation to cell membrane, immunofluorescent staining, confocal microscopy; settings: transfected THP-1 cells stimulated with compound and TBZ, FIG. 3
Protocol: A human monocyte cell line THP-1 and a human colon cancer cell line HT-29 were maintained in a 10% FBS-Roswell Park Memorial Institute (RPMI) 1640 medium supplemented with 2 mM L-glutamine, 100 U/ml penicillin, and 100 μg/ml streptomycin at 37° C. under a 5% CO2 condition. The THP-1 cells were differentiated into macrophages in an RPMI 1640 medium containing 500 nM Phorbol 12-myristate 13-acetate (PMA) for 3 hours. Human mixed lineage kinase domain-like protein (MLKL)-flag plasmid (Sino Biological, HG12810-CF) transfection was performed using the electroporation system (Invitrogen) of MicroPorator-mini (Digital Bio).
Cells were seeded on cell culture-treated glass chamber slides. The cells were pretreated with Z-VAD, BV6, and the indicated compound for 1 hour, and then treated with TNF-α and BV6 overnight. Subsequently, the cells were washed with phosphate-buffered saline (PBS) and fixed in 4% paraformaldehyde for 10 minutes. Before incubation for 10 minutes in 0.25% Triton X-100 in PBS, the cells were washed three more times with PBS. The cells were blocked with 5% bovine serum albumin (BSA) in PBS for 30 minutes and stained using an anti-Flag (Sigma, F7425-2MG) antibody. The nuclei were stained with DAPI (Invitrogen, 00-4959-52). Images were captured using a confocal microscope (Olympus, FV1000). […]

CN1CCc2cccc3c2[C@H]1Cc1ccc(O)c(O)c1-3 [APO, apomorphine]
MLKL phosphorylation [1]: did not inhibit | amount of HMGB1 secreted into the supernatant [2]: decreased | distribution of Flag-MLKL signals [3]: mostly distributed in the cytoplasm
